{"source": "patent US20180177890A1", "about": "“LIGAND-CYTOTOXIC DRUG CONJUGATE, PREPARATION METHOD THEREOF, AND USE THEREOF” (priority 2015, published 2018)", "key": {"[1]": {"test_system": "HepG2 tumor cells", "assay": "In vitro tumor cell proliferation inhibition test (CCK-8), HepG2", "assay_type": "cell-based", "conditions": "Homo sapiens, HepG2, 76 hours incubation", "procedure": "(§1) The objective of this experiment is to test the in vitro inhibition effect of the formula (D) according to the present invention on the proliferation of HepG2 tumor cells (human hepatocellular carcinoma cells, Chinese Academy of Sciences cell bank, No. #TCHu 72) and A549 tumor cells (human lung adenocarcinoma, Chinese Academy of Sciences cell bank, No. #TCHu150). The cells were treated with different concentrations of the compound in vitro. After 76 hours incubation, the cell proliferation was detected by CCK-8 reagent (Cell Counting Kit-8, Dojindo, No. CK04), and the activity of the compound in vitro was evaluated according to the IC50 value.\n(§2) The following is an example of a method for in vitro proliferation inhibition test of HepG2 cells for the purpose of exemplifying the test of the compounds according to the present invention for the proliferation inhibitory activity on tumor cells in vitro. This method is also applicable to, but not limited to, the in vitro proliferation inhibition tests on other tumor cells.\nHepG2 cells in logarithmic growth phase were washed with PBS (phosphate buffer, ThermoFisher) once, and added with 2-3 ml trypsin (0.25% trypsin-EDTA (1×), Gibico, Life Technologies) to digest for 2-3 min. Then, 10-15 ml of cell culture medium (DMEM/F12 medium, Invitrogen; 10% (v/v)) was added after the cells were completely digested. The digested HepG2 cells were eluted, and centrifuged at 1000 rpm for 3 min. The supernatant was discarded, and then 10-20 ml of cell culture medium were added to resuspend the cells to prepare a single cell suspension.\nThe HepG2 single cell suspension was mixed and the cell density was adjusted to 6×10^4 cells/ml with cell culture medium. The density-adjusted cell suspension was mixed uniformly and added to a 96-well cell culture plate at 100 μl/well. The plates were incubated in a 5% CO2 incubator at 37° C. for 18-20 hours.\n(§3) The compound was dissolved with DMSO (dimethylsulfoxide, Shanghai Titan Technology Co., Ltd.) to prepare a storage solution having an initial concentration of 10 mM.\n(§4) 10 μl of 10 mM compound was added to the wells of the first column of a U-shaped bottom 96-well plate (sample plate 1), and 90 μl of DMSO was added to each compound sample well of the first column, i.e., the stock solution was diluted 10 times as the starting point. Then, 3-fold gradient dilutions were performed, with each compound concentration […]. The diluent was DMSO solution. 60 μl of 100% DMSO was added to 12th column and 20 μl of 1 mM positive drug control was added to 11th column.\n(§5) In a new U-shaped bottom 96-well plate (sample plate 2), each sample from the sample plate 1 was diluted 20 times with the complete medium. Then, in another new U-shaped bottom 96-well plate (sample plate 3), each well sample from the sample plate 2 was subjected to a final 10-fold dilution.\n(§6) After the cell pre-culture was completed, the 96-well cell culture plate was removed and the supernatant was discarded. Each sample dilution in the 96-well sample plate 3 was successively added to a 96-well cell culture plate at 100 μl/well. Each compound sample was tested in duplicate at each concentration. […] After completion of the loading operation, the 96-well cell culture plate was incubated at 37° C. for about 76 hours in a 5% CO2 incubator.\n(§7) The 96-well cell culture plate was taken and CCK-8 was added to each well at […]. The cell culture plate was gently pat and mixed for more than 10 times and incubated at 37° C. for 2 hours in a 5% CO2 incubator.\n(§8) The 96-well cell culture plate was taken and placed in a microplate reader (PerkinElmer, VICTOR 3) and the absorbance at 450 nm was measured using the microplate reader.\n(§9) Data was analyzed with Microsoft Excel and Graphpad Prism 5."}, "[2]": {"test_system": "A549 tumor cells", "assay": "In vitro tumor cell proliferation inhibition test (CCK-8), A549", "assay_type": "cell-based", "conditions": "Homo sapiens, A549, 76 hours incubation", "procedure": "as §1, §2, §3, §4, §5, §6, §7, §8\nIn accordance with the above procedure, the inhibition activity of the compound according to the present invention on the proliferation of A549 tumor cells in vitro was tested. The cell culture medium was also DMEM/F12.\nas §9"}, "[3]": {"test_system": "NCI-N87 cells (HER2 overexpressing human gastric cancer cells)", "assay": "Tumor inhibition rate test of NCI-N87 transplanted tumor in nude mice", "assay_type": "in vivo", "conditions": "60 mg/kg (first dose doubling), IV", "excerpt": "To evaluate and compare the effect of antibody-cytotoxin conjugates according to the present invention on transplanted tumors of NCI-N87 cells (HER2 overexpressing human gastric cancer cells, ATCC, CRL-5822) in nude mice. […] Preparation method: all prepared with physiological saline. […] Feeding environment: SPF level. […] T/C (%)=(T−T0)/(C−C0)×100%, wherein T and C represent the tumor volume at the end of the experiment; T0 and C0 represent the tumor volume at the beginning of the experiment. […] The number of mice at the beginning of the experiment was as follows: Control group n=12, Treatment group n=6."}}, "note": "Square brackets hold non-standard residues; d marks the D form. Peptide text beside a SMILES is read from it. Dolaproine = CO[C@@H]([C@@H]1CCCN1)[C@@H](C)C(=O)O; Phe(2,4-Cl2) = N[C@@H](Cc1ccc(Cl)cc1Cl)C(=O)O; Dil = CC[C@H](C)[C@H](NC)[C@@H](CC(=O)O)OC; Phe(3-Cl) = N[C@@H](Cc1cccc(Cl)c1)C(=O)O; Phe(3-F) = N[C@@H](Cc1cccc(F)c1)C(=O)O; Phe(4-Me) = Cc1ccc(C[C@H](N)C(=O)O)cc1; Phe(2-F) = N[C@@H](Cc1ccccc1F)C(=O)O; Phe(2-Me) = Cc1ccccc1C[C@H](N)C(=O)O; 2Thi = N[C@@H](Cc1cccs1)C(=O)O; NMeV = CN[C@H](C(=O)O)C(C)C"}
{"compound": "CC[C@H](C)[C@@H]([C@@H](CC(=O)N1CCC[C@H]1[C@H](OC)[C@@H](C)C(=O)N[C@@H](Cc1ccccc1F)C(=O)O)OC)N(C)C(=O)[C@@H](NC(=O)[C@@H](NC)C(C)C)C(C)C", "note": "[Compound 25, (S)-2-((2R,3R)-3-((S)-1-((3R,4S,5S)-4-((S)—N,3-dimethyl-2-((S)-3-methyl-2-(methylamino)butanamido)butanamido)-3-methoxy-5-methylheptanoyl)pyrrolidin-2-yl)-3-methoxy-2-methylpropanamido)-3-(2-fluorophenyl)propanoic acid] (H-[NMeV]V[Dil][Dolaproine][Phe(2-F)]-OH)", "values": [{"measurement": "IC50", "setting": "[1]", "result": 175, "unit": "nM"}, {"measurement": "IC50", "setting": "[2]", "result": 200, "unit": "nM"}]}
{"compound": "CC[C@H](C)[C@@H]([C@@H](CC(=O)N1CCC[C@H]1[C@H](OC)[C@@H](C)C(=O)N[C@@H](Cc1ccc(C)cc1)C(=O)O)OC)N(C)C(=O)[C@@H](NC(=O)[C@@H](NC)C(C)C)C(C)C", "note": "[Compound 29, (S)-2-((2R,3R)-3-((S)-1-((3R,4S,5S)-4-((S)—N,3-dimethyl-2-((S)-3-methyl-2-(methylamino)butanamido)butanamido)-3-methoxy-5-methylheptanoyl)pyrrolidin-2-yl)-3-methoxy-2-methylpropanamido)-3-(p-tolyl)propanoic acid] (H-[NMeV]V[Dil][Dolaproine][Phe(4-Me)]-OH)", "values": [{"measurement": "IC50", "setting": "[1]", "result": 58.6, "unit": "nM"}, {"measurement": "IC50", "setting": "[2]", "result": 1.8, "unit": "nM"}]}
{"compound": "CC[C@H](C)[C@@H]([C@@H](CC(=O)N1CCC[C@H]1[C@H](OC)[C@@H](C)C(=O)N[C@@H](Cc1cccc(Cl)c1)C(=O)O)OC)N(C)C(=O)[C@@H](NC(=O)[C@@H](NC)C(C)C)C(C)C", "note": "[Compound 31, (S)-3-(3-chlorophenyl)-2-((2R,3R)-3-((S)-1-((3R,4S,5S)-4-((S)—N,3-dimethyl-2-((S)-3-methyl-2-(methylamino)butanamido)butanamido)-3-methoxy-5-methylheptanoyl)pyrrolidin-2-yl)-3-methoxy-2-methylpropanamido)propanoic acid] (H-[NMeV]V[Dil][Dolaproine][Phe(3-Cl)]-OH)", "values": [{"measurement": "IC50", "setting": "[1]", "result": 100, "unit": "nM"}, {"measurement": "IC50", "setting": "[2]", "result": 130, "unit": "nM"}]}
{"compound": "CC[C@H](C)[C@@H]([C@@H](CC(=O)N1CCC[C@H]1[C@H](OC)[C@@H](C)C(=O)N[C@@H](Cc1cccc(F)c1)C(=O)O)OC)N(C)C(=O)[C@@H](NC(=O)[C@@H](NC)C(C)C)C(C)C", "note": "[Compound 32, (S)-2-((2R,3R)-3-((S)-1-((3R,4S,5S)-4-((S)—N,3-dimethyl-2-((S)-3-methyl-2-(methylamino)butanamido)butanamido)-3-methoxy-5-methylheptanoyl)pyrrolidin-2-yl)-3-methoxy-2-methylpropanamido)-3-(3-fluorophenyl)propanoic acid] (H-[NMeV]V[Dil][Dolaproine][Phe(3-F)]-OH)", "values": [{"measurement": "IC50", "setting": "[1]", "result": 17.4, "unit": "nM"}, {"measurement": "IC50", "setting": "[2]", "result": 13.5, "unit": "nM"}]}
{"compound": "CC[C@H](C)[C@@H]([C@@H](CC(=O)N1CCC[C@H]1[C@H](OC)[C@@H](C)C(=O)N[C@@H](Cc1ccc(Cl)cc1Cl)C(=O)O)OC)N(C)C(=O)[C@@H](NC(=O)[C@@H](NC)C(C)C)C(C)C", "note": "[Compound 33, (S)-3-(2,4-dichlorophenyl)-2-((2R,3R)-3-((S)-1-((3R,4S,5S)-4-((S)-N,3-dimethyl-2-((S)-3-methyl-2-(methylamino)butanamido)butanamido)-3-methoxy-5-methylheptanoyl)pyrrolidin-2-yl)-3-methoxy-2-methylpropanamido)propanoic acid] (H-[NMeV]V[Dil][Dolaproine][Phe(2,4-Cl2)]-OH)", "values": [{"measurement": "IC50", "setting": "[1]", "result": 4.66, "unit": "nM"}, {"measurement": "IC50", "setting": "[2]", "result": 5, "unit": "nM"}]}
{"compound": "CC[C@H](C)[C@@H]([C@@H](CC(=O)N1CCC[C@H]1[C@H](OC)[C@@H](C)C(=O)N[C@@H](Cc1ccccc1C)C(=O)O)OC)N(C)C(=O)[C@@H](NC(=O)[C@@H](NC)C(C)C)C(C)C", "note": "[Compound 34, (S)-2-((2R,3R)-3-((S)-1-((3R,4S,5S)-4-((S)—N,3-dimethyl-2-((S)-3-methyl-2-(methylamino)butanamido)butanamido)-3-methoxy-5-methylheptanoyl)pyrrolidin-2-yl)-3-methoxy-2-methylpropanamido)-3-(o-tolyl)propanoic acid] (H-[NMeV]V[Dil][Dolaproine][Phe(2-Me)]-OH)", "values": [{"measurement": "IC50", "setting": "[1]", "result": 18.3, "unit": "nM"}, {"measurement": "IC50", "setting": "[2]", "result": 32.3, "unit": "nM"}]}
{"compound": "CC[C@H](C)[C@@H]([C@@H](CC(=O)N1CCC[C@H]1[C@H](OC)[C@@H](C)C(=O)N[C@@H](Cc1cccs1)C(=O)O)OC)N(C)C(=O)[C@@H](NC(=O)[C@@H](NC)C(C)C)C(C)C", "note": "[Compound 35, (S)-2-((2R,3R)-3-((S)-1-((3R,4S,5S)-4-((S)—N,3-dimethyl-2-((S)-3-methyl-2-(methylamino)butanamido)butanamido)-3-methoxy-5-methylheptanoyl)pyrrolidin-2-yl)-3-methoxy-2-methylpropanamido)-3-(thiophen-2-yl)propanoic acid] (H-[NMeV]V[Dil][Dolaproine][2Thi]-OH)", "values": [{"measurement": "IC50", "setting": "[1]", "result": 30.6, "unit": "nM"}, {"measurement": "IC50", "setting": "[2]", "result": 18, "unit": "nM"}]}
{"compound": "Pertuzumab", "values": [{"measurement": "Mean tumor volume (mm^3) D0", "setting": "[3]; D0, 7, D0 = time of first administration", "result": 115.5, "unit": "mm^3"}, {"measurement": "% T/C D21", "setting": "[3]; D0, 7, D21", "result": 42, "unit": "%"}, {"measurement": "% tumor inhibition rate D21", "setting": "[3]; D0, 7, D21", "result": 58, "unit": "%"}, {"measurement": "Mean tumor volume (mm^3) D21", "setting": "[3]; D0, 7, D21", "result": 380.1, "unit": "mm^3"}]}
